In patent US20090298894A1, “AMINO ACID COMPOUNDS” (Asahi Kasei Pharma Corporation, priority 2008, published 2009):

Test system: peripheral lymphocytes
Assay: Evaluation of peripheral blood lymphocyte reduction
Type: in vivo
Details: po, 6 h, rat, orally administered, six hours after the administration, read-out: ED50 (dosage required to reduce number of lymphocytes by 50%)
Description: Evaluation of Peripheral Blood Lymphocyte Reduction
The compound or a solvent is orally administered to a rat. 3, 6, 24, 48 or 72 hours after the administration of the compounds, blood is drawn from the rat tail. Hematological testis carried out for the whole blood sample. Using an automated analyzer (Sysmex 2000Xi), total number of peripheral lymphocytes is obtained. By having at least three animals per group, activity of the compound on the total number of peripheral lymphocytes was evaluated. Lymphocyte reduction caused by the compound administration was evaluated via comparison with an animal group which had received the solvent only. Specifically, average number of the lymphocytes for the solvent administered group was taken as 100%, and from average number of the lymphocytes for the compound administered group, control % value was calculated. Further, in view of the dosage of the compound and the dosage of the compound that is required to reduce number of lymphocytes by 50% six hours after the administration compared to the control % value was calculated as ED50.
In the case of Cc1cc(-c2nc(-c3ccc4c(c3)CCC4NC3CC(C(=O)O)C3)no2)c(F)cc1-c1cccc(C(F)(F)F)c1C(F)(F)F.Cl (stereo not shown) [Example 48], the ED50 is reported as < 1 mg/kg.
With Cc1cc(-c2nc(-c3ccc4c(c3)CCC4NC3CC(C(=O)O)C3)no2)ccc1-c1cccc(F)c1F.Cl (stereo not shown) [Example 28] the ED50 was < 1 mg/kg.
With Cc1cc(-c2nc(-c3ccc4c(c3)CCC4NC3CC(C(=O)O)C3)no2)ccc1-c1cc(F)ccc1F.Cl (stereo not shown) [Example 29] the ED50 was < 1 mg/kg.
For Cc1cc(-c2nc(-c3ccc4c(c3)CCC4NC3CC(C(=O)O)C3)no2)c(F)cc1-c1cccc(F)c1F.Cl (stereo not shown) [Example 32], the ED50 was < 1 mg/kg.
For Cc1cc(-c2nc(-c3ccc4c(c3)CCC4NC3CC(C(=O)O)C3)no2)ccc1-c1cccc(F)c1.Cl (stereo not shown) [Example 4], the ED50 was < 1 mg/kg.

Test system: rat having arthritis caused by an adjuvant
Assay: Animal model having arthritis caused by an adjuvant
Type: in vivo
Details: female Lewis rat, oral once a day, twenty-one days after the administration
Description: Animal Model Having Arthritis Caused by an Adjuvant
Seven-week old female Lewis rat is used for the evaluation. After measuring the volume of the hind leg of the rat, M. tuberculosis H37 RA (manufactured by Difco, 500 μg/100 μl) which has been suspended in fluid paraffin as an adjuvant, is subcutaneously injected in the sole of rear left foot of the rat to prepare a rat having arthritis caused by an adjuvant. The compounds to be tested are suspended in 1% methyl cellulose solution, and force the animal to be orally administered with the suspension into the stomach by using a sonde, once a day for twenty-one days from the start of the adjuvant injection. Evaluation of arthritis is carried out by measuring volume of the foot of each animal by using a plethysmometer (manufactured by UGO BASILE). By comparing the value for the group administered with the compounds of the present invention with the solvent administered group, effect of the compounds is determined. Specifically, the swelling of the sole of the rear left foot of the solvent administered group is taken as 100%, and in view of the swelling of the animals of the compound administered group, control % values are calculated. […]
For Cc1cc(-c2nc(-c3ccc4c(c3)CCC4N[C@H]3C[C@H](C(=O)O)C3)no2)ccc1-c1ccccc1.Cl (stereo partly drawn) [Example 1, 1,3-Trans-3-(5-(5-(2-methylbiphenyl-4-yl)-1,2,4-oxadiazol-3-yl)-2,3-dihydro-1H-inden-1-ylamino)cyclobutanecarboxylic acid hydrochloride salt], the “ED50 (dosage required to reduce the swelling of sole of the rear left foot by 50%)” value was “less than 1 mg/kg”.

Target: T1, human S1P1 (Homo sapiens, UniProt P21453)
T1 construct: expressed in transfected cells
T1 sequence (P21453 whole entry): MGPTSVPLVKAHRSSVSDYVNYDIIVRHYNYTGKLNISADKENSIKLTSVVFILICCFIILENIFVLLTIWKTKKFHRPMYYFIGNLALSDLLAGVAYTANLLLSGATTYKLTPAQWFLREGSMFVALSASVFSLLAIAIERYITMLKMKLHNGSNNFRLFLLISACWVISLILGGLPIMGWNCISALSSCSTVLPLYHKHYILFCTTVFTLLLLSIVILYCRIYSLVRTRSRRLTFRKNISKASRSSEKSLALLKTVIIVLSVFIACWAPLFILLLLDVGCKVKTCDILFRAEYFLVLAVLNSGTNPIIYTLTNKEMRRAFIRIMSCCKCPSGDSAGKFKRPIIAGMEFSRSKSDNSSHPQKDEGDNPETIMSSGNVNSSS
Assay: 35S-GTPγS binding assay using a membrane prepared from CHO cells which stably express S1P1 receptor
Type: biochemical
Details: CHO cell membrane fraction stably expressing human S1P1, read-out: EC50 (concentration of agonist required to give 50% of its own maximum increase ratio), human S1P1
Description: ^35S-GTPγS Binding Assay Using a Membrane Prepared from CHO Cells Which Stably Express S1P1 Receptor
Functional activation of human S1P1 by the compounds was determined based on quantification of ^35S-GTPγS binding to G protein due to the receptor activation, by using a cell membrane fraction prepared from CHO cells in which human S1P1 are stably expressed. As for human S1P1, the above described human S1P1 was used. Membrane proteins as prepared and various concentrations of sphingosine-1-phosphate or the compounds diluted in a solvent such as DMSO were incubated in a solution comprising 20 mM Tris-Cl (pH 7.5), 100 mM NaCl, 10 mM MgCl2, […] (Upstate), 0.1% BSA (fatty acid free, Sigma) and 25 pM ^35S-GTPγS (specific activity 1250 Ci/mmol) in 96 well microtiter plates. Binding was performed by incubating them for 90 minutes at room temperature, and then terminated by harvesting the membrane proteins onto multiscreeen harvest FB plates (Millipore) using Millipore multiscreen separation system. After drying the harvest plates at least for 12 hours, 25 μl of MicroScint-O (Perkin Elmer) was added to each well and radioactivity was measured using a Top Counter.
Having the value measured for the well to which a solvent has been added as a control value, the agonist activity of the compounds was determined by comparing the increase in the well to which a test compound has been added to the control value, and therefore an increase ratio for each concentration of the compounds was obtained. EC50 values were culcurated as defined to be the concentration of agonist required to give 50% of its own maximum increase ratio.
In the case of Cc1cc(-c2nc(-c3ccc4c(c3)CCC4N[C@H]3C[C@H](C(=O)O)C3)no2)ccc1-c1cccc(C(F)(F)F)c1F (stereo partly shown) [Example 31], the EC50 is reported as < 0.01 µM.
In the case of Cc1cc(-c2nc(-c3ccc4c(c3)CCC4N[C@H]3C[C@H](C(=O)O)C3)no2)c(F)cc1-c1ccsc1 (stereo partly shown) [Example 5], the EC50 is reported as < 0.01 µM.
With Cc1cc(-c2nc(-c3ccc4c(c3)CCC4N[C@H]3C[C@H](C(=O)O)C3)no2)c(F)cc1-c1cccc(F)c1F (stereo partly shown) [Example 32] the EC50 was < 0.01 µM.
With O=C(O)[C@H]1C[C@H](N2Cc3ccc(-c4noc(-c5ccc(-c6ccccc6)c(Cl)c5)n4)cc3C2)C1 [Example 67] the EC50 was < 0.01 µM.
With Cc1cc(-c2nc(-c3ccc4c(c3)CCC4N[C@H]3C[C@H](C(=O)O)C3)no2)ccc1-c1ccccc1C#N (stereo partly shown) [Example 59] the EC50 was < 0.01 µM.
In the case of Cc1cc(-c2nc(-c3ccc4c(c3)CCC4N[C@H]3C[C@H](C(=O)O)C3)no2)ccc1-c1cc(F)ccc1F (stereo partly shown) [Example 29], the EC50 is reported as < 0.01 µM.
With Cc1cc(-c2nc(-c3ccc4c(c3)CCC4N[C@H]3C[C@H](C(=O)O)C3)no2)c(F)cc1-c1cccc(C(F)(F)F)c1F (stereo partly shown) [Example 41] the EC50 was < 0.01 µM.
With Cc1cc(-c2nc(-c3ccc4c(c3)CCC4N[C@H]3C[C@H](C(=O)O)C3)no2)ccc1-c1cccc(F)c1 (stereo partly shown) [Example 4] the EC50 was < 0.01 µM.
In the case of Cc1cc(-c2nc(-c3ccc4c(c3)CCC4N[C@H]3C[C@H](C(=O)O)C3)no2)c(F)cc1-c1ccccc1C(F)(F)F (stereo partly shown) [Example 30], the EC50 is reported as < 0.01 µM.
With Cc1cc(-c2nc(-c3ccc4c(c3)CCC4N[C@H]3C[C@H](C(=O)O)C3)no2)ccc1-c1ccccc1OC(F)(F)F (stereo partly shown) [Example 17] the EC50 was < 0.01 µM.
With Cc1cc(-c2nc(-c3ccc4c(c3)CCC4N[C@H]3C[C@H](C(=O)O)C3)no2)cc(C)c1-c1ccccc1F (stereo partly shown) [Example 15] the EC50 was < 0.01 µM.
With Cc1cc(-c2nc(-c3ccc4c(c3)CCC4N[C@H]3C[C@H](C(=O)O)C3)no2)ccc1-c1ccccc1C(F)(F)F (stereo partly shown) [Example 21] the EC50 was < 0.01 µM.
For Cc1cc(-c2nc(-c3ccc4c(c3)CCC4N[C@H]3C[C@H](C(=O)O)C3)no2)c(F)cc1-c1ccccc1F (stereo partly shown) [Example 26], the EC50 was < 0.01 µM.
In the case of Cc1cc(-c2nc(-c3ccc4c(c3)CCC4N[C@H]3C[C@H](C(=O)O)C3)no2)ccc1-c1cccc(F)c1C(F)(F)F (stereo partly shown) [Example 39], the EC50 is reported as < 0.01 µM.

Test system: not given
Assay: not given
Details: rats, intravenous administration, Non-Patent Document 2; cited from earlier work
For CCCCCCCCCCCCC/C=C/[C@@H](O)[C@@H](N)COP(=O)(O)O [sphingosine 1-phosphate], the “effect on heart rate” value is given as “decreases the heart rate”.

Test system: not given
Assay: not given
Details: reported in Non-Patent Document 1; cited from earlier work
For CCCCCCCCc1ccc(CCC(N)(CO)CO)cc1 [FTY720], the “side effect after administration” value is given as “bradycardia is found after administration”.
